Measured values taken from patent publication US10131652B2, “Pyrimidinyloxy benzene derivatives as herbicides” (E. I. DU PONT DE NEMOURS AND COMPANY, priority 2014, dated 2018).
Like-named read-outs stand apart in the source and are kept apart here.

How the values were obtained:
Test in all cases: Test D pre-/postemergence plant response
Type in all cases: in vivo
[1] = test system: Italian ryegrass (Lolium multiflorum); conditions: Lolium multiflorum; for pest or weed control at 16 g/ha: 16 g ai/ha; for pest or weed control at 31 g/ha: 31 g ai/ha; for pest or weed control at 62 g/ha: 62 g ai/ha; for pest or weed control at 125 g/ha: 125 g ai/ha
Outline: (§1)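 Preemergence: seeds in loam/sand blend treated with test chemicals in non-phytotoxic solvent with surfactant; postemergence: plants at 2–18 cm (1- to 4-leaf stage) in peat-based medium sprayed likewise. Greenhouse 13 to 15 days, then visual rating vs controls, 0 (no effect) to 100 (complete control).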

[2] = test system: barnyardgrass (Echinochloa crus-galli); conditions: Echinochloa crus-galli; for pest or weed control at 16 g/ha: 16 g ai/ha; for pest or weed control at 16 g/ha / pest or weed control at 31 g/ha: scale 0 to 100 (0 no effect, 100 complete control); for pest or weed control at 31 g/ha: 31 g ai/ha; for pest or weed control at 62 g/ha: 62 g ai/ha; for pest or weed control at 125 g/ha: 125 g ai/ha
Outline: as §1

[3] = test system: blackgrass (Alopecurus myosuroides); conditions: Alopecurus myosuroides; for pest or weed control at 16 g/ha: 16 g ai/ha; for pest or weed control at 31 g/ha: 31 g ai/ha; for pest or weed control at 62 g/ha: 62 g ai/ha; for pest or weed control at 125 g/ha: 125 g ai/ha
Outline: as §1

[4] = test system: corn (Zea mays); conditions: Zea mays; for Corn plant response rating (crop injury, 0 = no effect, 100 = complete kill) at 62 g/ha: 62 g ai/ha
Outline: as §1

[5] = test system: galium (catchweed bedstraw, Galium aparine); conditions: Galium; for pest or weed control at 16 g/ha: 16 g ai/ha; for pest or weed control at 31 g/ha: 31 g ai/ha; for pest or weed control at 62 g/ha: 62 g ai/ha; for pest or weed control at 125 g/ha: 125 g ai/ha
Outline: as §1

[6] = test system: giant foxtail (Setaria faberii); conditions: Setaria faberi; for pest or weed control at 16 g/ha: 16 g ai/ha; for pest or weed control at 31 g/ha: 31 g ai/ha; for pest or weed control at 62 g/ha: 62 g ai/ha; for pest or weed control at 125 g/ha: 125 g ai/ha
Outline: as §1

[7] = test system: johnsongrass (Sorghum halepense); conditions: Sorghum halepense; for pest or weed control at 16 g/ha: 16 g ai/ha; for pest or weed control at 31 g/ha: 31 g ai/ha; for pest or weed control at 62 g/ha: 62 g ai/ha; for pest or weed control at 125 g/ha: 125 g ai/ha
Outline: as §1

[8] = test system: lambsquarters (Chenopodium album); conditions: Chenopodium album; for pest or weed control at 16 g/ha: 16 g ai/ha; for pest or weed control at 31 g/ha: 31 g ai/ha; for pest or weed control at 62 g/ha: 62 g ai/ha; for pest or weed control at 125 g/ha: 125 g ai/ha
Outline: as §1

[9] = test system: large (Lg) crabgrass (Digitaria sanguinalis); conditions: Digitaria sanguinalis; for pest or weed control at 16 g/ha: 16 g ai/ha; for pest or weed control at 31 g/ha: 31 g ai/ha; for pest or weed control at 62 g/ha: 62 g ai/ha; for pest or weed control at 125 g/ha: 125 g ai/ha
Outline: as §1

[10] = post-emergence, Postemergence, scale 0 to 100 (0 no effect, 100 complete control), read-out: Ryegrass, Italian plant response rating
[11] = post-emergence, Postemergence, scale 0 to 100, 0 no effect, 100 complete control, read-out: Plant response rating, Ryegrass, Italian
[12] = pre-emergence, Preemergence, scale 0 to 100 (0 no effect, 100 complete control), read-out: Plant response rating, Ryegrass, Italian
[13] = post-emergence, Postemergence, read-out: Barnyardgrass plant response rating
[14] = post-emergence, Postemergence, scale 0 to 100, 0 no effect, 100 complete control, read-out: Plant response rating, Barnyardgrass
[15] = pre-emergence, Preemergence, read-out: Plant response rating (scale 0 to 100), Barnyardgrass
[16] = pre-emergence, Preemergence, read-out: Plant response rating, Barnyardgrass
[17] = post-emergence, Postemergence, scale 0 to 100 (0 no effect, 100 complete control), read-out: Blackgrass plant response rating
[18] = post-emergence, Postemergence, scale 0 to 100, 0 no effect, 100 complete control, read-out: Plant response rating, Blackgrass
[19] = pre-emergence, Preemergence, scale 0 to 100 (0 no effect, 100 complete control), read-out: Plant response rating, Blackgrass
[20] = post-emergence, Postemergence, scale 0 to 100 (0 no effect, 100 complete control), read-out: Galium plant response rating
[21] = post-emergence, Postemergence, scale 0 to 100, 0 no effect, 100 complete control, read-out: Plant response rating, Galium
[22] = pre-emergence, Preemergence, scale 0 to 100 (0 no effect, 100 complete control), read-out: Plant response rating, Galium
[23] = post-emergence, Postemergence, scale 0 to 100 (0 no effect, 100 complete control), read-out: Foxtail, Giant plant response rating
[24] = post-emergence, Postemergence, scale 0 to 100, 0 no effect, 100 complete control, read-out: Plant response rating, Foxtail, Giant
[25] = pre-emergence, Preemergence, scale 0 to 100 (0 no effect, 100 complete control), read-out: Plant response rating, Foxtail, Giant
[26] = post-emergence, Postemergence, scale 0 to 100 (0 no effect, 100 complete control), read-out: Johnsongrass plant response rating
[27] = post-emergence, Postemergence, scale 0 to 100, 0 no effect, 100 complete control, read-out: Plant response rating, Johnsongrass
[28] = pre-emergence, Preemergence, scale 0 to 100 (0 no effect, 100 complete control), read-out: Plant response rating, Johnsongrass
[29] = post-emergence, Postemergence, scale 0 to 100 (0 no effect, 100 complete control), read-out: Lambsquarters plant response rating
[30] = post-emergence, Postemergence, scale 0 to 100, 0 no effect, 100 complete control, read-out: Plant response rating, Lambsquarters
[31] = pre-emergence, Preemergence, scale 0 to 100 (0 no effect, 100 complete control), read-out: Plant response rating, Lambsquarters
[32] = post-emergence, Postemergence, scale 0 to 100 (0 no effect, 100 complete control), read-out: Crabgrass, Large plant response rating
[33] = post-emergence, Postemergence, scale 0 to 100, 0 no effect, 100 complete control, read-out: Plant response rating, Crabgrass, Large
[34] = pre-emergence, Preemergence, scale 0 to 100 (0 no effect, 100 complete control), read-out: Plant response rating, Crabgrass, Large

`FC(F)(F)c1cc(-c2ccccc2Oc2ncc(Cl)cn2)on1` [Compound 63, 5-chloro-2-[2-[3-(trifluoromethyl)-5-isoxazolyl]phenoxy]pyrimidine] was tested, and the pest or weed control at 16 g/ha [1, 10] was 0%, the pest or weed control at 31 g/ha [1, 10] was 0% and the pest or weed control at 62 g/ha [1, 11] was 5%. For the same compound, the pest or weed control at 125 g/ha [1, 11] was 30%, the pest or weed control at 125 g/ha ([1]; pre-emergence, Preemergence, read-out: Plant response rating (scale 0 to 100), Ryegrass, Italian) was 90% and the pest or weed control at 16 g/ha [1, 12] was 0%. For the same compound, the pest or weed control at 31 g/ha [1, 12] was 40%, the pest or weed control at 62 g/ha [1, 12] was 80% and the pest or weed control at 16 g/ha [2, 13] was 5%. It also gave a pest or weed control at 31 g/ha [2, 13] of 10%, a pest or weed control at 62 g/ha [2, 14] of 10% and a pest or weed control at 125 g/ha [2, 14] of 10%. The pest or weed control at 62 g/ha [2, 15] was 98%, the pest or weed control at 125 g/ha [2, 15] was 100% and the pest or weed control at 16 g/ha [2, 16] was 30%. The pest or weed control at 31 g/ha [2, 16] was 65%, the pest or weed control at 16 g/ha [3, 17] was 5% and the pest or weed control at 31 g/ha [3, 17] was 10%. The pest or weed control at 62 g/ha [3, 18] was 20%, the pest or weed control at 125 g/ha [3, 18] was 25% and the pest or weed control at 125 g/ha ([3]; pre-emergence, Preemergence, read-out: Plant response rating (scale 0 to 100), Blackgrass) was 90%. It also gave a pest or weed control at 16 g/ha [3, 19] of 30%, a pest or weed control at 31 g/ha [3, 19] of 85% and a pest or weed control at 62 g/ha [3, 19] of 90%. The plant injury at 16 g/ha ([4]; post-emergence, Postemergence, 16 g ai/ha, scale 0 to 100 (0 no effect, 100 complete control), read-out: Corn plant response rating) was 5%, the plant injury at 31 g/ha ([4]; post-emergence, Postemergence, 31 g ai/ha, scale 0 to 100 (0 no effect, 100 complete control), read-out: Corn plant response rating) was 5% and the Corn plant response rating (crop injury, 0 = no effect, 100 = complete kill) at 62 g/ha ([4]; post-emergence, Postemergence, scale 0 to 100, 0 no effect, 100 complete control) was 5%. For the same compound, the Corn plant response rating (crop injury, 0 = no effect, 100 = complete kill) at 125 g/ha ([4]; post-emergence, Postemergence, 125 g ai/ha, scale 0 to 100, 0 no effect, 100 complete control) was 10%, the plant injury at 125 g/ha ([4]; pre-emergence, Preemergence, 125 g ai/ha, read-out: Plant response rating (scale 0 to 100), Corn) was 15% and the Corn plant response rating (crop injury, 0 = no effect, 100 = complete kill) at 16 g/ha ([4]; pre-emergence, Preemergence, 16 g ai/ha, scale 0 to 100 (0 no effect, 100 complete control)) was 0%. It also gave a Corn plant response rating (crop injury, 0 = no effect, 100 = complete kill) at 31 g/ha ([4]; pre-emergence, Preemergence, 31 g ai/ha, scale 0 to 100 (0 no effect, 100 complete control)) of 5%, a Corn plant response rating (crop injury, 0 = no effect, 100 = complete kill) at 62 g/ha ([4]; pre-emergence, Preemergence, scale 0 to 100 (0 no effect, 100 complete control)) of 15% and a pest or weed control at 16 g/ha [5, 20] of 60%. The pest or weed control at 31 g/ha [5, 20] was 70%, the pest or weed control at 62 g/ha [5, 21] was 70% and the pest or weed control at 125 g/ha [5, 21] was 70%. For the same compound, the pest or weed control at 125 g/ha ([5]; pre-emergence, Preemergence, read-out: Plant response rating (scale 0 to 100), Galium) was 98%, the pest or weed control at 16 g/ha [5, 22] was 75% and the pest or weed control at 31 g/ha [5, 22] was 98%. The pest or weed control at 62 g/ha [5, 22] was 98%, the pest or weed control at 16 g/ha [6, 23] was 0% and the pest or weed control at 31 g/ha [6, 23] was 5%. For the same compound, the pest or weed control at 62 g/ha [6, 24] was 10%, the pest or weed control at 125 g/ha [6, 24] was 20% and the pest or weed control at 125 g/ha ([6]; pre-emergence, Preemergence, read-out: Plant response rating (scale 0 to 100), Foxtail, Giant) was 100%. The pest or weed control at 16 g/ha [6, 25] was 30%, the pest or weed control at 31 g/ha [6, 25] was 80% and the pest or weed control at 62 g/ha [6, 25] was 98%. It also gave a pest or weed control at 16 g/ha [7, 26] of 5%, a pest or weed control at 31 g/ha [7, 26] of 5% and a pest or weed control at 62 g/ha [7, 27] of 25%. It also gave a pest or weed control at 125 g/ha [7, 27] of 45%, a pest or weed control at 125 g/ha ([7]; pre-emergence, Preemergence, read-out: Plant response rating (scale 0 to 100), Johnsongrass) of 85% and a pest or weed control at 16 g/ha [7, 28] of 5%. The pest or weed control at 31 g/ha [7, 28] was 35%, the pest or weed control at 62 g/ha [7, 28] was 70% and the pest or weed control at 16 g/ha [8, 29] was 10%. The pest or weed control at 31 g/ha [8, 29] was 70%, the pest or weed control at 62 g/ha [8, 30] was 85% and the pest or weed control at 125 g/ha [8, 30] was 90%. It also gave a pest or weed control at 125 g/ha ([8]; pre-emergence, Preemergence, read-out: Plant response rating (scale 0 to 100), Lambsquarters) of 95%, a pest or weed control at 16 g/ha [8, 31] of 95% and a pest or weed control at 31 g/ha [8, 31] of 90%. The pest or weed control at 62 g/ha [8, 31] was 90%, the pest or weed control at 16 g/ha [9, 32] was 5% and the pest or weed control at 31 g/ha [9, 32] was 5%. It also gave a pest or weed control at 62 g/ha [9, 33] of 10%, a pest or weed control at 125 g/ha [9, 33] of 35% and a pest or weed control at 125 g/ha ([9]; pre-emergence, Preemergence, read-out: Plant response rating (scale 0 to 100), Crabgrass, Large) of 100%. It also gave a pest or weed control at 16 g/ha [9, 34] of 65%, a pest or weed control at 31 g/ha [9, 34] of 98% and a pest or weed control at 62 g/ha [9, 34] of 98%.
